Laboratory results as given in patent US9700637B2, “Reaction-based fluorescent probes for detecting zinc” (Massachusetts Institute of Technology, priority 2013, dated 2017).

What was measured:
[1] = pH profile of fluorescence; assay type: physicochemical
Description: FIG. 21 depicts normalized fluorescence signals for DA-ZP1-TPP as a function of increasing pH in the presence of 125 μM ZnCl2 or 250 μM EDTA. Data were acquired 17.5 mM (0.1% v/v) acetic acid in milli-Q H2O beginning at pH 3.5. The pH of the solution was increased by sequential addition of aqueous KOH. The total volume of KOH added was less than 5% of the total volume. λex=475 nm.
FIG. 26 depicts in vitro characterization of DA-ZP1-A3. (a) UV-vis and (b) fluorescence spectra of a 5 μM solution of DA-ZP1-A3 in buffer (50 mM PIPES, 100 mM KCl; pH 7). Spectra were acquired initially, upon addition of 100 μM ZnCl2, and again after addition of 200 μM EDTA. (c) Time-dependent change in the normalized absorbance of a ca. 5 μM solution DA-ZP1-A3 at 37° C. in buffer (50 mM PIPES, 100 mM KCl; pH 7) in the presence of 100 μM ZnCl2 (λabs=510 nm) or EDTA (λabs=520 nm). (d) Integrated fluorescence intensity of a 1 μM solution of ZP1-A3 (circles) or DA-ZP1-A3 (squares) as a function of pH.
Next, we investigated the pH profile of DA-ZP1-TPP. The use of nitrogen atoms to coordinate zinc endows Zinpyr sensors with selectivity for zinc over calcium and magnesium, but also renders them pH sensitive. […] Protonation of these amines leads to increased background fluorescence because protons can diminish PeT in a manner similar to that of zinc ions. […]

[2] = system: RWPE-1 cells; test: Mitochondrial zinc uptake imaging in prostate cells; assay type: cell-based; settings: RWPE-1, 50 μM ZnCl2 KSFM, 24 h
Description: (§1) FIG. 25 depicts decreased mitochondrial zinc uptake in cancerous cell lines. RWPE-1, RWPE-2, and PC-3 prostate cell lines were incubated for 24 h in medium supplemented with (+) and without (−) 50 μM ZnCl2. RWPE-1 is the only cell line that has a statistically significant (p<0.001) increase in mitochondrial zinc uptake when incubated in zinc-enriched media.
(§2) With a new mitochondrial-targeting sensor in hand, we used DA-ZP1-TPP to investigate the ability of prostate cell lines to accumulate zinc within their mitochondria. RWPE-1 and RWPE-2 are a pair of genetically similar cell lines that retain normal epithelial cell morphology, express cytokeratin markers for prostate epithelial cells, and are hormone sensitive. […] To explore the ability of RWPE-1 and -2 cells to sequester zinc in mitochondria, we measured the fluorescence intensity of DA-ZP1-TPP in both lines after the cells were bathed in normal or zinc-enriched (50 μM ZnCl2) keratinocyte serum-free medium (KSFM) for 24 h prior to imaging. RWPE-1 cells bathed in zinc-enriched medium have a fluorescence signal intensity that is ˜2.3-fold higher than cells bathed in normal medium (FIG. 25). […] Importantly, in both cell lines the observed fluorescence signals from DA-ZP1-TPP are sensitive to ZnPT and TPEN and have good correlation with MitoTracker Red, the Pearson's r values being 0.68±0.09 and 0.59±0.1 for RWPE-1 and -2, respectively. […]

[3] = system: RWPE-2 cells; test: as above; assay type: cell-based; settings: RWPE-2, 50 μM ZnCl2 KSFM, 24 h
Description: as §1, §2

[4] = system: porcine liver esterase; test: Deacetylation by porcine liver esterase (UV-vis absorbance); assay type: in vitro ADME; settings: 1.25 units porcine liver esterase, 37° C., pH 7
Description: FIG. 23 depicts kinetic traces for the deacetylation of DA-ZP1-TPP. The half-life for deacetylation of a 2.75 μM solution of DA-ZP1-TPP, at 37° C. in 50 mM PIPES buffer (pH 7) and 100 mM KCl, was measured in the presence of 125 μM ZnCl2 (+Zn), 250 μM EDTA (−Zn), or 1.25 units of porcine liver esterase (Esterase). The change in absorbance at 520 nm (EDTA and esterase) or 510 nm (ZnCl2) was used to monitor the reaction.
DA-ZP1-TPP has a zinc-induced fluorescence response and is relatively stable to uncatalyzed hydrolysis and esterase activity. […] Other late 3d-block transition metal ions, such as Co(II) and Cu(II), can coordinate to DA-ZP1-TPP but are generally not available in appreciable chelatable quantities within the cell. In addition to monitoring selectivity in the fluorescence response, we used UV-vis spectroscopy to investigate the rate and zinc-specificity of metal-mediated ester hydrolysis. DA-ZP1-TPP deacetylation results in opening of the lactone ring and restoration of conjugation across the xanthene ring. By monitoring the absorbance of the xanthene it system, we could interrogate deacetylation kinetics in a manner that is independent of the fluorescence response. […] To determine whether ester hydrolysis depends on the metal-binding core of DA-ZP1-TPP, we measured the deacetylation kinetics of fluorescein diacetate (DA-FL) under analogous conditions. […]

CC(=O)Oc1c(Cl)cc2c(c1CN(Cc1ccccn1)Cc1ccccn1)Oc1c(cc(Cl)c(OC(C)=O)c1CN(Cc1ccccn1)Cc1ccccn1)C21OC(=O)c2ccc(C(=O)NCC[P+](c3ccccc3)(c3ccccc3)c3ccccc3)cc21 [DA-ZP1-TPP]
fluorescence turn-on under acidic conditions ([1]; absence of zinc): no significant fluorescence turn-on under acidic conditions
pH at which a strong zinc-dependent fluorescence response is displayed ([1]; presence of excess zinc ions (125 μM ZnCl2)): > 5
fluorescence signal intensity, zinc-enriched vs normal medium [2]: ~2.3 fold
increase in fluorescence signal, zinc-enriched vs normal medium [3]: no statistically significant increase
t1/2-Esterase of deacetylation [4]: 2.9 h
